# Data taken from US8012975B2, “Antitumoral analogs of ET-743” (Pharma Mar, S.A., priority 2000, dated 2011).
# Like-named read-outs stand apart in the source and are kept apart here.
# Key:
# 5637 [1] = tested on: 5637
# 786-O = test: Cytotoxic activity (M) panel, Renal 786-O; settings: Homo sapiens, 786-0, read-out: CYTOTOXIC ACTIVITY (M) 786-O
# FADU = test: Cytotoxic activity (M) panel, Pharnynx FADU; settings: Homo sapiens, read-out: CYTOTOXIC ACTIVITY (M) FADU
# Hs746t = test: Cytotoxic activity (M) panel, Gastric Hs746t; settings: Homo sapiens, read-out: CYTOTOXIC ACTIVITY (M) Hs746t
# SK-HEP-1 [2] = test: Cytotoxic activity (M) panel, Liver SK-HEP-1; settings: Homo sapiens, SK-HEP1, read-out: CYTOTOXIC ACTIVITY (M) SK-HEP-1
# PANC-1 = test: Cytotoxic activity (M) panel, Pancreas PANC-1; settings: Homo sapiens, PANC-1, read-out: CYTOTOXIC ACTIVITY (M) PANC-1
# MEL-28 [3] = test: Cytotoxic activity (M) panel, Melanoma Mel-28; settings: Homo sapiens, SK-MEL-28, read-out: CYTOTOXIC ACTIVITY (M) Mel-28
# Y-79 = test: Cytotoxic activity (M) panel, Retinoblastoma Y-79; settings: Homo sapiens, Y79, read-out: CYTOTOXIC ACTIVITY (M) Y-79
# CHSA = test: Cytotoxic activity (M) panel, Chondrosarcoma CHSA; settings: read-out: CYTOTOXIC ACTIVITY (M) CHSA
# OSA-FH [4] = test: Cytotoxic activity (M) panel, Osteosarcoma OSA-FH; settings: read-out: CYTOTOXIC ACTIVITY (M) OSA-FH
# [5] = Cytotoxic activity IC50, CV-1; settings: African green monkey, CV-1 cells
# P-388 = test: Cytotoxic activity IC50, P-388; settings: Mus musculus, P388, read-out: CYTOTOXIC ACTIVITIY IC50 (μM) P-388
# A-549 = test: Cytotoxic activity IC50, A-549; settings: Homo sapiens, A549, read-out: CYTOTOXIC ACTIVITIY IC50 (μM) A-549
# HT-29 [6] = test: Cytotoxic activity IC50, HT-29; settings: Homo sapiens, HT-29, read-out: CYTOTOXIC ACTIVITIY IC50 (μM) HT-29
# MEL-28 [7] = test: Cytotoxic activity IC50, MEL-28; settings: Homo sapiens, SK-MEL-28, read-out: CYTOTOXIC ACTIVITIY IC50 (μM) MEL-28
# DU-145 [8] = test: Cytotoxic activity IC50, DU-145; settings: Homo sapiens, DU-145, read-out: CYTOTOXIC ACTIVITIY IC50 (μM) DU-145
# PC3 [9] = tested on: PC3
# MX-1 = test: Cytotoxic activity (M) panel, Breast MX-1; settings: Homo sapiens, MX1, read-out: CYTOTOXIC ACTIVITY (M) MX-1
# 5637 [10] = test: Cytotoxic activity (M) panel, Bladder 5637; settings: read-out: CYTOTOXIC ACTIVITY (M) 5637
# NCI-H187 [11] = test: Cytotoxic activity (M) panel, SCL NCI-H187; settings: Homo sapiens, NCI-H187, read-out: CYTOTOXIC ACTIVITY (M) NCI-H187
# SK-OV-3 = test: Cytotoxic activity (M) panel, Ovary SK-OV-3; settings: Homo sapiens, SK-OV-3, read-out: CYTOTOXIC ACTIVITY (M) SK-OV-3
# LNCAP = test: Cytotoxic activity (M) panel, Prostate LNCAP; settings: Homo sapiens, read-out: CYTOTOXIC ACTIVITY (M) LNCAP
# HL60 [12] = settings: human
# Molt 3 [13] = settings: human
# H9 [14] = tested on: H9
# Hut 78 = settings: human
# MC116 [15] = settings: human
# RAMOS [16] = settings: human
# [17] = background statement, no test described; cited from earlier work
# HL60 [18] = test: cells; settings: Homo sapiens, HL-60, read-out: CYTOTOXIC ACTIVITY (M) HL60, leukemias & lymphomas, ALL Promyelocytic leukemia, line HL60
# K562 = test: cells; settings: Homo sapiens, K562, read-out: CYTOTOXIC ACTIVITY (M) K562
# RAMOS [19] = test: cells; settings: Homo sapiens, read-out: CYTOTOXIC ACTIVITY (M) RAMOS, leukemias & lymphomas, Lymphoma Burkitts B celll, line RAMOS
# Molt 3 [20] = test: Cytotoxic activity (M) panel, Acute lymphoblastic Molt 3; settings: Homo sapiens, MOLT-3, read-out: CYTOTOXIC ACTIVITY (M) Molt 3, leukemias & lymphomas, ALL Acute lymphoblastic, line Molt 3
# MC116 [21] = test: Cytotoxic activity (M) panel, Lymphoma undifferentiated MC116; settings: Homo sapiens, MC116, read-out: CYTOTOXIC ACTIVITY (M) MC116, leukemias & lymphomas, Lymphoma undifferentiated, line MC116
# SK-HEP-1 [22] = tested on: SK-HEP-1
# A549 = test: Cytotoxic activity (M) panel, NSCL A549; settings: Homo sapiens, A549, read-out: CYTOTOXIC ACTIVITY (M) A549
# HT-29 [23] = test: Cytotoxic activity (M) panel, Colon HT-29; settings: Homo sapiens, HT-29, read-out: CYTOTOXIC ACTIVITY (M) HT-29
# PC3 [24] = test: Cytotoxic activity (M) panel, Prostate PC3; settings: Homo sapiens, PC-3, read-out: CYTOTOXIC ACTIVITY (M) PC3
# DU-145 [25] = test: Cytotoxic activity (M) panel, Prostate DU-145; settings: Homo sapiens, DU-145, read-out: CYTOTOXIC ACTIVITY (M) DU-145
# SW-694 = test: Cytotoxic activity (M) panel, Fibrosarcoma SW-694; settings: read-out: CYTOTOXIC ACTIVITY (M) SW-694
# NCI-H187 [26] = tested on: NCI-H187
# OSA-FH [27] = tested on: OSA-FH
# H9 [28] = test: cells; settings: Homo sapiens, H9, read-out: CYTOTOXIC ACTIVITY (M) H9, leukemias & lymphomas, Lymphoma T-cell, line H9
Structure (SMILES),IC50 (786-O) [M],IC50 (FADU) [M],IC50 (Hs746t) [M],IC50 (SK-HEP-1 [2]) [M],IC50 (PANC-1) [M],IC50 (MEL-28 [3]) [M],IC50 (Y-79) [M],IC50 (CHSA) [M],IC50 (OSA-FH [4]) [M],IC50 (MX-1) [M],IC50 5637 [10] [M],IC50 (NCI-H187 [11]) [M],IC50 (SK-OV-3) [M],IC50 (LNCAP) [M],IC50 (HT-29 [23]) [M],IC50 (PC3 [24]) [M],further results
COc1c(C)cc2c(c1O)[C@@H]1C3Cc4c(OC(C)=O)c(C)c5c(c4[C@H](CNC(=O)Cc4ccccc4)N3[C@@H](O)[C@H](C2)N1C)OCO5 (stereo partly drawn) [drawing 217],1e-08,1.14e-09,1.37e-07,9.5e-09,1.03e-08,4.48e-09,7.78e-09,1.09e-08,9.5e-09,–,–,–,–,–,–,–,CYTOTOXIC ACTIVITY (M) 5637 5637 [1]: 3.18 to 09 M
COCOc1c(OC)c(C)cc2c1[C@@H]1C3Cc4c(OC(=O)C(F)(F)C(F)(F)C(F)(F)F)c(C)c5c(c4[C@H](CNC(=O)CCc4ccccc4)N3[C@@H](C#N)[C@H](C2)N1C)OCO5 (stereo partly drawn),–,–,–,–,–,–,–,–,–,–,–,–,–,–,–,–,IC50 [5]: 500 nM; IC50 (P-388): 0.5 µM; IC50 (A-549): 0.5 µM; IC50 (HT-29 [6]): 0.5 µM; IC50 (MEL-28 [7]): 0.5 µM; IC50 (DU-145 [8]): 0.5 µM
CCCC(=O)NC[C@H]1c2c(c(OC(C)=O)c(C)c3c2OCO3)CC2[C@H]3c4c(cc(C)c(OC)c4O)C[C@@H]([C@H](O)N21)N3C (stereo partly drawn) [drawing 225],6.55e-09,7.94e-09,2.97e-08,5.07e-09,2.9e-09,3.05e-08,3.14e-09,1.73e-08,8.56e-08,2.5e-06,2.81e-09,3.98e-11,2.21e-07,5.39e-09,–,–,CYTOTOXIC ACTIVITY (M) PC3 (PC3 [9]): 1.46-08 M
COc1c(C)cc2c(c1O)[C@@H]1C3Cc4c(OC(C)=O)c(C)c5c(c4[C@H](COC(=O)/C=C/c4ccccc4)N3[C@@H](O)[C@H](C2)N1C)OCO5 (stereo partly drawn) [drawing 239],–,–,–,–,–,–,–,–,–,–,–,–,–,–,–,–,IC50 (HL60 [12]): 3.1 nM; IC50 (Molt 3 [13]): 0.0869 nM; IC50 (H9 [14]; human): 21.7 nM; IC50 (Hut 78): 48.1 nM; IC50 (MC116 [15]): 0.0527 nM; IC50 (RAMOS [16]): 1.86 nM
COC1=C(C)C(=O)C2=C(C1=O)[C@@H]1[C@@H]3Cc4c(OC(=O)CO)c(C)c(OC)c(O)c4[C@H](CNC(=O)C(C)=O)N3[C@@H](C#N)[C@H](C2)N1C [Saframycin R],–,–,–,–,–,–,–,–,–,–,–,–,–,–,–,–,toxicity [17]: moderate toxicity
CCC(=O)N[C@@H](C)C(=O)NC[C@H]1c2c(c(OC(C)=O)c(C)c3c2OCO3)CC2[C@H]3c4c(cc(C)c(OC)c4O)C[C@@H]([C@H](O)N21)N3C (stereo partly drawn) [drawing 232],–,–,–,–,–,–,–,–,–,–,–,–,–,–,–,–,CYTOTOXIC ACTIVITY (M) H9 (H9 [14]): 2.43 to 08 M; IC50 (HL60 [18]): 7.36e-09 M; IC50 (K562): 1.18e-08 M; IC50 (RAMOS [19]): 5.01e-09 M; IC50 (Molt 3 [20]): 9.86e-10 M; IC50 (MC116 [21]): 1.49e-09 M
COc1c(C)cc2c(c1O)[C@@H]1C3Cc4c(OC(C)=O)c(C)c5c(c4[C@H](COC(=O)/C=C/c4cccc(C(F)(F)F)c4)N3[C@@H](O)[C@H](C2)N1C)OCO5 (stereo partly drawn) [drawing 233],1.46e-08,4.59e-07,3.57e-08,–,1.03e-08,1.76e-08,8.85e-10,2.53e-08,6.34e-08,2.81e-08,1.14e-08,8.02e-10,7.03e-06,5.98e-07,4.08e-07,7.88e-08,CYTOTOXIC ACTIVITY (M) SK-HEP-1 (SK-HEP-1 [22]): 1.63 to 08 M; IC50 (A549): 2.81e-06 M; IC50 (DU-145 [25]): 7.03e-08 M; IC50 (SW-694): 3.38e-06 M
COc1c(C)cc2c(c1O)[C@@H]1C3Cc4c(OC(C)=O)c(C)c5c(c4[C@H](CNC(=O)/C=C/c4ccccc4)N3[C@@H](O)[C@H](C2)N1C)OCO5 (stereo partly drawn) [drawing 213],1.72e-09,3.71e-10,7.1e-11,3.15e-09,1.29e-10,2.18e-09,8.85e-11,1.39e-09,1.09e-09,2.38e-09,1.91e-10,–,8.74e-09,3.94e-11,2.12e-09,4.7e-09,IC50 (NCI-H187 [26]): 0.0778 pM; IC50 (DU-145 [25]): 2.22e-09 M; IC50 (SW-694): 1.39e-06 M
COc1c(C)cc2c(c1O)[C@@H]1C3Cc4c(OC(C)=O)c(C)c5c(c4[C@H](CNC(=O)[C@H](C)NC(=O)Cc4ccccc4)N3[C@@H](O)[C@H](C2)N1C)OCO5 (stereo partly drawn) [drawing 216],2.9e-09,3.77e-08,6.25e-09,9.03e-10,2.58e-09,1.13e-09,1.31e-11,2.25e-09,–,2.85e-06,7.85e-10,2.07e-12,–,–,1.2e-10,9.34e-09,CYTOTOXIC ACTIVITY (M) OSA-FH (OSA-FH [27]): 1.35 to 08 M
COc1c(C)cc2c(c1O)[C@@H]1C3Cc4c(OC(C)=O)c(C)c5c(c4[C@H](COC(=O)/C=C/c4ccccc4)N3[C@@H](O)[C@H](C2)N1C)OCO5 (stereo partly drawn) [drawing 238],–,–,–,–,–,–,–,–,–,–,–,–,–,–,–,–,IC50 (HL60 [12]): 13.4 nM; IC50 (Molt 3 [13]): 2.48 nM; IC50 (Hut 78): 7.31 nM; IC50 (MC116 [15]): 6.38 nM; IC50 (RAMOS [16]): 0.715 nM; IC50 (K562): 6.13e-08 M; IC50 (H9 [28]): 1.91e-08 M
